23 compounds from patent publication US12629374B2, “Antimalarial agents” (Merck Sharp & Dohme LLC, priority 2020, dated 2026) can be followed below.

Counter-ions that a name gives are not always drawn.

One test concerns ring stage parasites. In words: Parasite growth potency assay, 72 hours, LDH readout. The format is cell-based. The conditions noted are these: 72 h, parasite growth measured by LDH assay after 72 hours at 37° C.; 0.7% rings, 2% haematocrit; read-out: EC50. As for the experimental part: The parasite stock was maintained at 4% haematocrit in RPMI-Hepes media buffered with sodium bicarbonate and supplemented with 5% heat inactivated human serum and 0.5% albumax.
On the day of assay set up, a blood smear of the parasite culture was Giemsa stained and counted. The parasitemia was adjusted to 0.7% rings and the haematocrit was diluted to 2% in RPMI-Hepes media buffered with sodium bicarbonate and supplemented with 5% heat inactivated human serum and 0.5% albumax. 30 ul of diluted parasites are then added into 10 ul of media+compound in pre-prepared Greiner TC assay plates. Parasite assay plates were placed in gassed humidified boxes in single layer and allowed to incubate at 37° C. for 72 hours. After 72 hours growth, assay plates are sealed with parafilm and frozen flat, in single file at −80° C. overnight. On the following day, assay plates are allowed to thaw at room temperature for 4 hours to which an LDH assay is performed to measure parasite growth.
Usually EC50 stands for the concentration giving half of the maximal effect. As to `CCC1(CC)CC(=O)N([C@H](c2cccc(C(=O)N[C@H]3CCOc4ccccc43)c2)c2cncs2)C(=N)N1` (single isomer, unassigned) [Example 85B, trifluoroacetate], the EC50 came out at 2.1 nM.
Regarding `CCC1(CC)CC(=O)N([C@@H](COCCOC)c2cccc(C(=O)N[C@H]3CC(C)(C)Oc4ccccc43)c2)C(=N)N1` (single isomer, unassigned) [Example 112B, trifluoroacetate], the EC50 is 59.6 nM.
As for `CCC1(CC)CC(=O)N(Cc2cccc(C(=O)N[C@@H]3c4ccccc4OCC3O)c2)C(=N)N1` (single isomer, unassigned) [Example 126A, 3-[(4,4-diethyl-2-imino-6-oxo-hexahydropyrimidin-1-yl)methyl]-N-(3-hydroxychroman-4-yl)benzamide], the EC50 is 19.4 nM.
With `CCC[C@H](c1cccc(C(=O)N[C@@H]2c3ccccc3OCC2O)c1)N1C(=N)NC(CC)(CC)CC1=O` (single isomer, unassigned) [Example 127B], the EC50 stood at 1.2 nM.
For the compound `CCC1(CC)CC(=O)N([C@H](CCOC)c2cccc(C(=O)NC3c4ccccc4CC3(C)O)c2)C(=N)N1` (single isomer, unassigned) [Example 142B, 3-[1-(4,4-diethyl-2-imino-6-oxo-hexahydropyrimidin-1-yl)-3-methoxy-propyl]-N-(2-hydroxy-2-methyl-indan-1-yl)benzamide], the 50% effective concentration (EC50) was 1.4 nM.
Still for that read-out and setting: with `CCC1(CC)CC(=O)N([C@H](CCOC)c2cc(F)cc(C(=O)N[C@H]3c4ccccc4CC3(C)O)c2)C(=N)N1` (single isomer, unassigned) [Example 144A, 3-[1-(4,4-diethyl-2-imino-6-oxo-hexahydropyrimidin-1-yl)-3-methoxy-propyl]-5-fluoro-N-(2-hydroxy-2-methyl-indan-1-yl)benzamide] the figure was 81.6 nM.

The same test, now with this note: parasite growth measured by LDH assay after 72 hours at 37° C.; 0.7% rings, 2% haematocrit; read-out: EC50.
`CCC1(CC)CC(=O)N(C(c2cncnc2)c2cccc(C(=O)NC3CC(C)(C)Oc4ccccc43)c2)C(=N)N1` (single isomer, unassigned) [Example 92A, 3-[(4,4-diethyl-2-imino-6-oxo-hexahydropyrimidin-1-yl)-pyrimidin-5-yl-methyl]-N-(2,2-dimethylchroman-4-yl)benzamide]: the EC50 was 25.5 nM.
Regarding `CCC1(CC)CC(=O)N(C(c2cncnc2)c2cccc(C(=O)NC3CC(C)(C)Oc4ccccc43)c2)C(=N)N1` (single isomer, unassigned) [Example 92C, 3-[(4,4-diethyl-2-imino-6-oxo-hexahydropyrimidin-1-yl)-pyrimidin-5-yl-methyl]-N-(2,2-dimethylchroman-4-yl)benzamide], the EC50 came to 2.8 nM.
With `CCC12CCCCCCC3COc4ccccc4C3NC(=O)c3cccc(c3)CN(C(=N)N1)C(=O)C2` (single isomer, unassigned) [Example 120A, (26-ethyl-8,29-dioxo-17-oxa-1,9,27-triazapentacyclo[24.2.2.13,7.010,19. 011,16]hentriaconta-3,5,7(31),11(16),12,14-hexaen-28-ylidene)ammonium; 2,2,2-trifluoroacetate], the EC50 was 70.3 nM.
As for `CCC12CCCCCCC3COc4ccccc4C3NC(=O)c3cccc(c3)CN(C(=N)N1)C(=O)C2` (single isomer, unassigned) [Example 120B, (26-ethyl-8,29-dioxo-17-oxa-1,9,27-triazapentacyclo[24.2.2.13,7.010,19. 011,16]hentriaconta-3,5,7(31),11(16),12,14-hexaen-28-ylidene)ammonium; 2,2,2-trifluoroacetate], the EC50 was 35.5 nM.
Turning to `CCC12CCCCCCC3COc4ccccc4C3NC(=O)c3cccc(c3)CN(C(=N)N1)C(=O)C2` (single isomer, unassigned) [Example 120C, (26-ethyl-8,29-dioxo-17-oxa-1,9,27-triazapentacyclo[24.2.2.13,7.010,19. 011,16]hentriaconta-3,5,7(31),11(16),12,14-hexaen-28-ylidene)ammonium; 2,2,2-trifluoroacetate], the EC50 worked out at 21.9 nM.
For `CCC12CCCCCCC3COc4ccccc4C3NC(=O)c3cccc(c3)CN(C(=N)N1)C(=O)C2` (single isomer, unassigned) [Example 120D, (26-ethyl-8,29-dioxo-17-oxa-1,9,27-triazapentacyclo[24.2.2.13,7.010,19. 011,16]hentriaconta-3,5,7(31),11(16),12,14-hexaen-28-ylidene)ammonium; 2,2,2-trifluoroacetate], the EC50 was 27.6 nM.
Turning to `CCC[C@H](c1cccc(C(=O)N[C@H]2c3ccccc3CC2(C)O)c1)N1C(=N)NC(CC)(CC)CC1=O` (single isomer, unassigned) [Example 122B], the concentration giving a half-maximal response (EC50) came to 17.7 nM.
As for `CCC[C@H](c1cccc(C(=O)N[C@H]2c3ccccc3CC2(C)O)c1)N1C(=N)NC(CC)(CC)CC1=O` (single isomer, unassigned) [Example 122C], the EC50 worked out at 57.3 nM.
Consider `CCC1(CC)CC(=O)N([C@H](CCOC)c2cc(F)cc(C(=O)N[C@H]3c4ccccc4CC3(C)O)c2)C(=N)N1` (single isomer, unassigned) [Example 144C, 3-[1-(4,4-diethyl-2-imino-6-oxo-hexahydropyrimidin-1-yl)-3-methoxy-propyl]-5-fluoro-N-(2-hydroxy-2-methyl-indan-1-yl)benzamide], for which the EC50 was 99.5 nM.
On the same count and under the same terms, with `CCC1(CC)CC(=O)N([C@H](CCOC)c2cccc(C(=O)N[C@@H]3c4ccccc4CC3(O)C(F)(F)F)c2)C(=N)N1` (single isomer, unassigned) [Example 204A] the figure was 21 nM; with `CCC1(CC)CC(=O)N([C@H](CCOC)c2cccc(C(=O)N[C@@H]3c4ccccc4CC3(O)C(F)(F)F)c2)C(=N)N1` (single isomer, unassigned) [Example 204B], 8.5 nM.

Staying with this test, now noted: parasite growth measured by LDH assay after 72 hours at 37° C.; 0.7% rings, 2% haematocrit; trifluoroacetate; read-out: EC50.
As to `CCC1(CC)CC(=O)N(Cc2cccc(C(=O)NC3CC(C)(C)Oc4ccccc43)c2)C(=N)N1` (single isomer, unassigned) [Example 51A, [1-[[3-[(2,2-dimethylchroman-4-yl)carbamoyl]phenyl]methyl]-4,4-diethyl-6-oxo-hexahydropyrimidin-2-ylidene]ammonium; 2,2,2-trifluoroacetate], the EC50 came to 91.9 nM.
`CCC1(CC)CC(=O)N(Cc2cccc(C(=O)NC3CC(C)(C)Oc4ccccc43)c2)C(=N)N1` (single isomer, unassigned) [Example 51B, [1-[[3-[(2,2-dimethylchroman-4-yl)carbamoyl]phenyl]methyl]-4,4-diethyl-6-oxo-hexahydropyrimidin-2-ylidene]ammonium; 2,2,2-trifluoroacetate]: the EC50 amounted to 0.5 nM.
On the same count and under the same terms, with `CCC1(CC)CC(=O)N([C@H](CCOC)c2cc(F)cc(C(=O)NC3c4ccccc4OC3(C)COC)c2)C(=N)N1` (single isomer, unassigned) [Example 176A, trifluoroacetate] the figure was 21.8 nM; with `CCC1(CC)CC(=O)N([C@H](CCOC)c2cc(F)cc(C(=O)NC3c4ccccc4OC3(C)COC)c2)C(=N)N1` (single isomer, unassigned) [Example 176C, trifluoroacetate], 98.9 nM.
On to `CCC1(CC)CC(=O)N([C@H](CCOC)c2cccc(C(=O)N[C@@H]3c4ccccc4OC3(C)CO)c2)C(=N)N1` (single isomer, unassigned) [Example 180A, trifluoroacetate], for which the EC50 was found to be 1.5 nM.
Consider `CCC1(CC)CC(=O)N([C@H](CCOC)c2cccc(C(=O)N[C@@H]3c4ccccc4OC3(C)CO)c2)C(=N)N1` (single isomer, unassigned) [Example 180B, trifluoroacetate], for which the concentration for a half-maximal effect (EC50) worked out at 15.3 nM.
